Experimental data as given in patent US7419979B2, “Derivatives of 6-{4-[4-(1H-indole-2-sulphonyl)-piperazin-1-carbonyl-phenyl]}pyradizin-3-one” (AstraZeneca AB, priority 2004, dated 2008).

Biological target: T1, human FXa (Homo sapiens, UniProt P00742)
T1 construct: human FXa, Haematologic Technologies Inc; purchased Haematologic Technologies Inc
Assay: Measurement of Factor Xa Inhibition (chromogenic substrate method)
Type: biochemical
Conditions: inhibition of Factor Xa activity, screen a); chromogenic substrate S-2765, 40 min at 37° C.; specimen results
Procedure: a) Measurement of Factor Xa Inhibition
The FXa inhibitor potency was measured with a chromogenic substrate method, in a Plato 3300 robotic microplate processor (Rosys AG, CH-8634 Hombrechtikon, Switzerland), using 96-well, half-volume microtiter plates (Costar, Cambridge, Mass., USA; Cat No 3690). Stock solutions of test substance in DMSO (72 μL), 10 mmol/L, alternatively 1 mmol/L were diluted serially 1:3 (24+48 μL) with DMSO to obtain ten different concentrations, which were analyzed as samples in the assay, together with controls and blanks. As control sample melagatran was analysed. The dilutions of each test substance were analyzed consecutively, row-wise on the microtiter plate, with wash-cycles between substances to avoid cross-contamination. […] The final assay concentrations were: test substance 0.0068-133, respectively 0.00068-13.3 μmol/L, S-2765 0.40 mmol/L (KM=0.25 mmol/L) and FXa 0.1 nmol/L. The linear absorbance increase at 405 nm during 40 min incubation at 37° C. was used for calculation of percent inhibition for the test samples, as compared to references without inhibitor and/or enzyme. […]

T1 sequence (P00742 235-488 limits assumed): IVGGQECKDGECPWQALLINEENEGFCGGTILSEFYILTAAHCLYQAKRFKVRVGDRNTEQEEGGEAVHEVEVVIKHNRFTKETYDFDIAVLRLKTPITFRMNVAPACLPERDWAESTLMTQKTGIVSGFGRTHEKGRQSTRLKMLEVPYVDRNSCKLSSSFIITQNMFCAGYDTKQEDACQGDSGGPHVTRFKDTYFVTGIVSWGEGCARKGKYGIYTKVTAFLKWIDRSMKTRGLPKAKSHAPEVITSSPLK
T1 sequence (P00742 41-179 partner limits assumed): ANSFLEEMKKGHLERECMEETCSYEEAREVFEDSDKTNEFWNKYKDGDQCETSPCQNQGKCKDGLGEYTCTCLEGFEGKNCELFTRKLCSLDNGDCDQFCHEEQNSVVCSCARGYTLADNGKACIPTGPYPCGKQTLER

Compound | IC50
CNCCn1nc(-c2ccc(C(=O)N3CCN(S(=O)(=O)c4cc5cc(Cl)ccc5[nH]4)CC3)cc2)ccc1=O [Example 3, 6-{4-[4-(5-Chloro-1H-indole-2-sulphonyl)-piperazine-1-carbonyl]-phenyl}-2-(2-methylamino-ethyl)-2H-pyridazin-3-one] | 55 nM
COCCOCCn1nc(-c2ccc(C(=O)N3CCN(S(=O)(=O)c4cc5cc(Cl)ccc5[nH]4)CC3)cc2)ccc1=O [Example 9, 6-{4-[4-(5-Chloro-1H-indole-2-sulphonyl)-piperazine-1-carbonyl]-phenyl}-2-[2-(2-methoxy-ethoxy)-ethyl]-2H-pyridazin-3-one] | 38 nM
